Article PMC10848157, “Assessing NH300094, a novel dopamine and serotonin receptor modulator with cognitive enhancement property for treating schizophrenia” (Frontiers in Pharmacology, 2024)
Structures can show the parent of a compound that is named as a salt.

Assays:
male ICR mice [1] = assay: Novel object recognition in scopolamine hydrobromide-treated mice; format: in vivo; conditions: NOR; NH300094 0.01–0.16 mg/kg p.o.; risperidone 0.04, 0.08, 0.16 mg/kg p.o.; rivastigmine 0.3 and 1 mg/kg i.p.
Description: The procedure was modified according to Bevins and Besheer ([Bevins and Besheer, 2006]). […] The tests were conducted in a 50 cm × 35 cm × 20 cm chamber and the mice behavior was recording using a Hikvision video recording system (H.265, Hikvision Digtial Technology Co., Ltd.). All mice were allowed to freely explore the chamber environment for 10 min, and there were no objects placed in the chamber during acclimatization period. […] Rivastigmine hydrogen tartrate group (0.1, 0.3 and 1 mg/kg, i.p.) were dosed simultaneously with scopolamine hydrobromide (3 mg/kg, i.p.). Training was conducted 30 min post scopolamine hydrobromide administration by placing a single mouse into a chamber for 10 min with two exactly same objects positioned in the center of chamber. (The distance between the two objects was more than 20 cm). […]
The experimental video was analyzed to record the time of mice exploring the new and old objects, respectively, and the differentiation index (DI) was calculated as follows: DI = new object exploration time/(new object exploration time + old object exploration time), which was used as the main evaluation index of discrimination ability. […] If the total exploration time of the new and old objects was less than 20 s, the total 10 min of video would be analyzed. […] The movement of circling without sniffing or sitting on the object was not recorded as exploration behavior.

male Wistar rats = assay: Conditioned avoidance response test in rats; format: in vivo; conditions: Rattus norvegicus, single oral dose, read-out: ED50, inhibition of conditioned avoidance response
Excerpt: Shuttle-box Avoidance Test Video Analysis System (DigBehv-SBG, Shanghai Jiliang Software Technology Co. Ltd.) were used to assess the rats conditioned avoidance response.
Phase I: The rats responded to the conditioned stimulus (auditory and visual) by training with foot shock reinforcement. Briefly, rats were placed into the CAR shuttle boxes for a 5-min habituation followed by 30 trials presented on a 20-s variable interval (20–30 s) stimulus. Each rats were subjected to a conditioned stimulus which consisted of 10s presentation of light and white noise, and then followed by a scrambled 1.5 mA foot shock for 10 s. […] Rats with avoidance rates greater than 70% for 3 consecutive days were included in this study post-training.
Phase II: The qualified rats were randomly divided into 7 groups. […] The procedure in the testing phase was the same as the Phase I described. The number of avoidances, escapes, and escape failures were recorded.

male ICR mice [2] = assay: DOI-induced head twitch in mice
male ICR mice [3] = assay: MK-801-induced hyperactivity in mice; format: in vivo; conditions: single oral dose
Description: Immediately after injection with either saline or MK-801 (0.3 mg/kg, i.p.), the mice were placed into the test chambers (29 cm × 29 cm × 30 cm) for 60 min of locomotion recording using a tracking and computerized analysis system (TopScan Version 3.00, Clever Sys Inc., Leesburg, VA).

male ICR mice [4] = assay: Forced swimming test in mice; format: in vivo; conditions: single oral dose; NH300094 0.03 mg/kg; risperidone 0.01, 0.03 and 0.1 mg/kg
Description: Each mouse was required to swim in an open cylindrical container (height of 25 cm, diameter of 10 cm) after intragastric administration of compounds 1 h. The container contained 1.2 L of water with temperature maintained at 24°C ± 1°C. The test used a computerized analysis and tracking system (Clever Sys Inc., Leesburg, VA) to recorded the duration of immobility (last 4 min of a total time of 6 min) about the testing mice.

male ICR mice [5] = assay: APO-induced climbing in mice
5-HT2C receptor = molecular target: T1, 5-HT2C receptor (Homo sapiens, UniProt P28335); assay: 5-HT2C receptor functional assay (calcium flow, FLIPR); format: cell-based; conditions: HEK293/5-HT2C cells, read-out: 5HT2cR, IC50
T1 sequence (P28335 33-458): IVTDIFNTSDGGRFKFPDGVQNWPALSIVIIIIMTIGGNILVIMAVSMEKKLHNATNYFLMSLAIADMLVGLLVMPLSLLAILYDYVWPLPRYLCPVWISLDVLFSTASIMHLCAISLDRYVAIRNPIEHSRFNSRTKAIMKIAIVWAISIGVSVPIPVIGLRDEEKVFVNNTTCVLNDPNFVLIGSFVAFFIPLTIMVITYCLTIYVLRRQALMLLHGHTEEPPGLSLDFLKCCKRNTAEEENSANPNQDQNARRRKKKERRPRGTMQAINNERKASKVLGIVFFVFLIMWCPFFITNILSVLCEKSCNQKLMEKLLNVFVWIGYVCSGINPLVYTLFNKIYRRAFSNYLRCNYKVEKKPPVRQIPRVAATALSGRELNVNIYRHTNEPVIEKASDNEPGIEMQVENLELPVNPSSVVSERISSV

5-HT1B receptor = 5-HT1B receptor (Homo sapiens, UniProt P28222); assay: 5-HT1B receptor functional assay (cAMP assay, inverse agonist); format: cell-based; conditions: inverse agonist activity, CHO-K1/5-HT1B cells, read-out: 5HT1BR, EC50
[6] = single oral dose, male ICR mice

Chain of 5-HT1B receptor (P28222 whole entry): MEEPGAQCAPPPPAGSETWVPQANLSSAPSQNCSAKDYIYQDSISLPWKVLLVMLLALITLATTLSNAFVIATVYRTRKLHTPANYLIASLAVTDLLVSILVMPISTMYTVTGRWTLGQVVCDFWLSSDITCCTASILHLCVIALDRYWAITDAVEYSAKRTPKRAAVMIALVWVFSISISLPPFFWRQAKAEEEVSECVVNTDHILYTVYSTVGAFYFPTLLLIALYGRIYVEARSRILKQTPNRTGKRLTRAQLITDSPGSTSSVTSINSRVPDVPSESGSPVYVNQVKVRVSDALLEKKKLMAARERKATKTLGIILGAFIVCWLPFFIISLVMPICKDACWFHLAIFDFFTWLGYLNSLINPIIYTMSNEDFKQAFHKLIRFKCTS

CCN(C)C(=O)Oc1cccc([C@H](C)N(C)C)c1 [rivastigmine bitartrate, rivastigmine hydrogen tartrate, reference compound]
effect on differentiation index (DI) of scopolamine hydrobromide-treated mice (male ICR mice [1]): significantly enhanced learning and memory ability

Cc1nc2n(c(=O)c1CCN1CCC(c3noc4cc(F)ccc34)CC1)CCCC2 [Risperidone, risperidone, reference compound]
ED50 (male Wistar rats): ~0.7 mg/kg
ED50 (male ICR mice [2]; Mus musculus, po, read-out: ED50, inhibition of DOI-induced head twitch, single oral dose, male ICR mice, DOI 1 mg/kg): ~0.002 mg/kg
MED, DOI-induced head twitch (male ICR mice [2]; [6]): 0.001 mg/kg
ED50 (male ICR mice [3]; Mus musculus, MK-801 0.3 mg/kg i.p., read-out: ED50, inhibition of MK-801-induced hyperactivity): ~0.08 mg/kg
Minimum effective dose (MED), MK-801-induced hyperactivity (male ICR mice [3]): 0.1 mg/kg
effect on immobility time in the FST (male ICR mice [4]): did not affect the immobility time
ED50 (male ICR mice [5]; Mus musculus, read-out: ED50, inhibition of APO-induced climbing): ~0.1 mg/kg
MED, APO-induced climbing (male ICR mice [5]; [6]): 0.1 mg/kg

CSc1ccc2c(c1)C(N1CCN(C)CC1)Cc1ccccc1S2 (centres unmarked) [Methiothepin, reference compound]
IC50 (5-HT2C receptor): 39.7 nM
EC50 (5-HT1B receptor): 22.3 ± 9.69 nM
